From patent US20260159481A1, “INDOLE DERIVATIVE WITH SUBSTITUENT AND PHARMACEUTICAL USE” (MITOIMMUNE THERAPEUTICS INC., priority 2023, published 2026)

What was measured:
Format in all cases: cell-based
[1] = system: hippocampal neurons (HT-22); assay: Protective effect against cell death due to RSL3 (LDH release), HT-22; conditions: RSL3 0.3 μM, 24 hours
Procedure: (§1) To confirm cell death protection effects on cardiac cells, adrenal medullary cells, renal fibroblasts, retinal epithelial cells, lung epithelial cells, renal proximal tubular epithelial cells, hippocampal neurons and fibroblasts, each type of cells were seeded at 4×10^3 to 1.2×10^4 cells/well in a 96-well plate and cultured for 18 to 24 hours. The example compounds were diluted to have the final concentration of 0.001, 0.003, 0.01, 0.3, 1, 3, and 10 μM, respectively, and then added to different wells and cultured for 15 to 20 minutes. […] To confirm the cell death protection effect of the example compounds, the degree of extracellular secretion of lactate dehydrogenase (LDH) was measured using a cytotoxicity LDH assay kit [Dojindo; CK12]. Briefly, at the end of 24-hour treatment of each type of cells with RSL3, 70 μL of the supernatant was taken from the 96-well plate where the cells were cultured and transferred to a new 96-well plate. The assay buffer included in the kit was added at 70 μL/well (equal to that of the sample) and the plate was covered with foil to block light and allowed to react for 15 to 20 minutes at room temperature. While observing a color change of the sample, 35 µL/well of a stop solution was added, an absorbance at 490 nm was measured using an iD3 spectrophotometer, and an EC50 value was calculated.

[2] = system: cardiac cells (H9C2); assay: Protective effect against cell death due to RSL3 (LDH release), H9C2; conditions: RSL3 0.5 μM, 24 hours
Procedure: as §1

[3] = system: MLE-12 cells; assay: Inhibitory effect on mitochondrial accumulation of ferrous ions (Mito-FerroGreen) under RSL3; conditions: 1 μM RSL3, 8 hours, compound 0.01, 0.1, 1 μM, FIG. 6
Procedure: To confirm the inhibitory effect on the mitochondrial accumulation of ferrous ions in lung epithelial cells, MILE-12 cells were seeded at 2×10^5 cells/well in a 12-well plate and cultured for 18 to 24 hours. Example Compound 29 and Fer-1 were diluted to have the final concentration of 0.01, 0.1, and 1 μM and added to each well, and the cells were cultured for 10 minutes. Afterward, RSL3 was treated to have the final concentration of 1 μM, and the cells were cultured for 8 hours. To confirm the inhibitory effect on the mitochondrial accumulation of ferrous ions, Mito-FerroGreen (DOJINDO; M489) was used. According to the manufacturer's protocol, the Mito-FerroGreen was diluted in the culture broth to have the final concentration of 1 μM, and fluorescence staining was performed after a 30-minute reaction. The MLE-12 cells that were fluorescence-stained with Mito-FerroGreen were detached from the 12-well plate using 0.25% trypsin-EDTA and transferred to a microtube. Fluorescence (Ex/Em=505 nm/535 nm) was measured using, BD FACSLyric™, and the relative change compared to the control was calculated.

[4] = system: MLE-12 cells; assay: Inhibitory effect on mito-ROS (MitoSOX) under RSL3; conditions: 1 μM RSL3, 2 hours, FIG. 4
Procedure: To confirm the protective effect against mito-ROS in lung epithelial cells, MILE-12 cells were seeded at 2×10^5 cells/well in a 12-well plate and cultured for 18 to 24 hours. Example Compound 29 and Fer-1 were diluted to have the final concentration of 0.01, 0.1, 1 and 10 M and added to each well, and the cells were cultured for 10 minutes. Afterward, RSL3 was treated to have the final concentration of 1 M, and the cells were cultured for 2 hours. To confirm the inhibitory effect on mito-ROS, the mitochondrial superoxide indicator MitoSOX™ (Invitrogen™; C6827) was used. According to the manufacturer's protocol, MitoSOX was diluted in the culture broth to have the final concentration of […], and fluorescence staining was performed after a 30-minute reaction. The MLE-12 cells fluorescence-strained with MitoSOX were detached from the 12-well plate using 0.25% trypsin-EDTA and transferred to a microtube, and fluorescence (Ex/Em=˜396 nm/610 nm) was measured using BD FACSLyric™, and the relative change compared to the control (RSL3-untreated group) was calculated.

[5] = system: adrenal medullary cells (PC-12); assay: Protective effect against cell death due to RSL3 (LDH release), PC-12; conditions: RSL3 0.3 μM, 24 hours
Procedure: as §1

[6] = system: retinal epithelial cells (ARPE-19); assay: Protective effect against cell death due to RSL3 (LDH release), ARPE-19; conditions: RSL3 0.3 μM, 24 hours
Procedure: as §1

[7] = system: MLE-12 cells; assay: Inhibitory effect on mitochondrial lipid ROS (MitoPerOx) under RSL3; conditions: 1 μM RSL3, 2 hours, compound 0.01, 0.1, 1 μM, FIG. 2
Procedure: To confirm the protective effect against mito-lipid ROS in lung epithelial cells, MLE-12 cells were seeded at 2×10^5 cells/well in a 12-well plate and cultured for 18 to 24 hours. Example Compound 29 and Fer-1 were diluted to have the final concentration of 0.01, 0.1, and 1 μM and added to each well, and the cells were cultured for 10 minutes. Afterward, RSL3 was treated to have the final concentration of 1 M, and the cells were cultured for 2 hours. To confirm the inhibitory effect on mito-lipid ROS, the fluorescent mitochondria-targeted lipid peroxidation probe MitoPerOx (abcam; ab146820) was used. According to the manufacturer's protocol, MitoPerOx was diluted in the culture broth to have the final concentration of 1 μM and treated, and fluorescence staining was performed after a 30-minute reaction. The MLE-12 cells that were fluorescence-stained with MitoPerOx were detached from the 12-well plate using 0.25% trypsin-EDTA and transferred to a microtube. Fluorescence (Ex/Em=495 nm/520-590 nm) was measured using BD FACSLyric™, and the relative change compared to the control was calculated.

[8] = system: fibroblasts (NIH/3T3); assay: Protective effect against cell death due to RSL3 (LDH release), NIH/3T3; conditions: 24 hours
Procedure: as §1

[9] = system: MLE-12 cells; assay: Inhibitory effect on intracellular accumulation of ferrous ions (FerroOrange) under RSL3; conditions: 1 μM RSL3, 8 hours, FIG. 5
Procedure: To confirm the inhibitory effect on intracellular accumulation of ferrous ions in lung epithelial cells, MILE-12 cells were seeded at 2×10^5 cells/well in a 12-well plate and cultured for 18 to 24 hours. Example Compound 29 and Fer-1 were diluted to have the final concentration of 0.01, 0.1, 1, and 10 μM and added to each well, and the cells were cultured for 10 minutes. Afterward, RSL3 was treated to have the final concentration of 1 M, and the cells were cultured for 8 hours. To confirm the inhibitory effect on intracellular accumulation of ferrous ions, FerroOrange (DOJINDO; F374) was used. According to the manufacturer's protocol, FerroOrange was diluted in the culture broth to have the final concentration of 1 M and added, and fluorescence staining was performed after a 30-minute reaction. The MLE-12 cells that were fluorescence-stained with FerroOrange were detached from the 12-well plate using 0.25% trypsin-EDTA and transferred to a microtube. Fluorescence (Ex/Em=580 nm/[…]) was measured using BD FACSLyric™, and the relative change compared to the control (RSL3-untreated group) was calculated.

SMILES	EC50 [1]	EC50 [2]	mitochondrial ferrous ions increased by RSL3 treatment [3]	mito-ROS increased by RSL3 treatment [4]	EC50 [5]	EC50 [6]	mito-lipid ROS increased by RSL3 treatment [7]	EC50 ([8]; RSL3 3 μM)	intracellular ferrous ions increased by RSL3 treatment [9]	EC50 ([1]; Mus musculus)	EC50 ([2]; Rattus norvegicus)	EC50 ([5]; Rattus norvegicus)	EC50 ([6]; Homo sapiens)	EC50 ([8]; Mus musculus, NIH3T3, RSL3 3 μM)
CCOC(=O)c1ccc(NC2CCCCC2)c(N)c1 [Fer-1, ferrostatin-1, reference compound]	100 to 1000 nM	≤ 100 nM	significantly reduced mitochondrial ferrous ion levels at 0.1 and 1 μM	significantly decreased at 0.01, 0.1, and 1 μM	≤ 100 nM	≤ 100 nM	significantly decreased at 1 μM	100 to 1000 nM	significantly decreased at 0.1 and 1 μM	–	–	–	–	–
OCCOCCOCc1cc(NC2CCOCC2)c2[nH]c(-c3ccccc3)cc2c1 [Example 29, 2-(2-((2-phenyl-7-((tetrahydro-2H-pyran-4-yl)amino)-1H-indol-5-yl)methoxy)ethoxy)ethan-1-ol]	–	–	significantly reduced mitochondrial ferrous ion levels at 0.01, 0.1, and 1 M	significantly decreased at 0.01, 0.1, and 1 μM	–	–	significantly decreased at 1 μM	–	significantly decreased at 0.1 and 1 μM	≤ 100 nM	≤ 100 nM	100 to 1000 nM	≤ 100 nM	100 to 1000 nM
